Here are results for one compound from patent US20180221306A1, “PHARMACEUTICAL COMPOSITIONS OF 5-HYDROXY-2-METHYLNAPHTHALENE-1,4-DIONE” (PellFiCure Pharmaceuticals, Inc., priority 2016, published 2018).

Structures are written as SMILES.

For series [1], the system named is Sprague Dawley rats. The experiment in a line: 7-day dose range-finding study. It is filed as in vivo, rat. The protocol:
(§1) A single-dose maximum tolerated dose (MTD) phase A study and a 7-day dose range-finding (DRF) phase B study were conducted in Sprague Dawley rats by MPI Research, Inc. (Mattawan, Mich.). A total of 62 males and 62 females rats were assigned to the study, which was performed in accordance with all current regulations. Animals were housed in standard conditions and had ad libitum access to food and water. Healthy animals of each sex were randomized into treatment groups using a standard, by weight, measured value randomization procedure. Compound I was administered by oral gavage, once at each dose level in Phase A (acute), or once daily for 7 consecutive days in Phase B. Oral gavage was chosen because the oral route is the intended route of administration in humans. Animals were observed twice daily for morbidity and mortality and were euthanatized for humane reasons where appropriate. An initial starting dose of 50 mg/kg was used for Phase A. Subsequent doses were increased or decreased based on the response to the preceding dose. […] The dose levels used in Phase B were based on the MTD identified in Phase A.
Daily doses of 0 (vehicle), 10, 30 and 100 mg/kg were then administered to Sprague Dawley rats by oral gavage for seven days for the dose-range finding study. […] Adverse events included decreased body weight or decreased body weight gain, decreased food consumption, adverse effects on various pathological parameters and Compound I-related macroscopic and microscopic abnormalities in multiple organs. […] The toxicity profile of Compound I is encouraging considering that the drug is effective in rodents at much lower doses. This toxicity-to-effectiveness dose ratio provides, potentially, a wide therapeutic window.

The subject of the next series is TRAMP-C2 tumor cells. Description: Orthotopic prostate cancer survival study, TRAMP-C2 cells in C57BL/6 mice. It counts as in vivo, mouse. Particulars: 1 mg/kg per oral plus castration; p<0.001. The protocol:
(§2) Orthotopic injection of PTEN-P2 and TRAMP-C2 for survival studies: Mice were anaesthetized and an incision was made through the skin and peritoneum. A total of 30,000 cells were suspended in Matrigel and slowly injected into the dorsal lobe of the prostate using a 30-gauge needle. Matrigel was used to prevent the leakage of cells out of the site of injection. A Q-tip was held over the injection site for 1 min to prevent bleeding and spill after removal of the needle. The abdominal wall was closed by surgical silk sutures.
(§3) Fox1/Nu or C57BL/6J mice were used as recipients for PTEN-P2 and TRAMP-C2 cells, respectively. Mice were surgically castrated 6 weeks later, when tumors were established, and Compound I treatment was initiated 4-5 days later. The number of days mice lived following treatment initiation was recorded for each animal. A few mice were found dead upon daily inspection, while others were euthanized in agreement with our IACUC regulations, including mice showing weight losses of more than 15% and mice showing signs of pain though posture and lack of grooming were euthanized.
A second study, shown in FIG. 6, used cells derived from the transgenic adenocarcinoma of the mouse prostate (TRAMP) model. The TRAMP model was generated through prostate-specific expression of the large T antigen of SV40 in the prostate epithelium. […]

The subject of another series is PTEN-CaP2/H2B-GFP tumors. The experiment in a line: IVM chamber model of castration resistant prostate cancer (CRPC), tumor size. It counts as in vivo, mouse. From the text: Mouse prostate cancer cells PTEN-CaP2 were initially derived from the PTEN-P2 cell line and are homozygous for PTEN deletion. Complete ablation of PTEN results in intrinsic androgen-independence in the PTEN-null model. Although PTEN-CaP2 tumors express AR, they are resistant to castration in the absence of prior exposure to ADT.

A further series concerns PTEN-P2 mouse cells. Description: Orthotopic prostate cancer survival study, PTEN-P2 cells in Fox1/Nu mice. It counts as in vivo. The protocol:
as §2, §3
An orthotopic model of prostate cancer in which 30,000 PTEN-P2 mouse cells were injected into the prostate of Fox1/Nu mice was used. Mice were castrated 5 weeks after the PTEN-P2 mouse cells were injected into the prostate, which allowed the tumors to become established. […] The number of days mice lived following treatment initiation was recorded for each animal.

Series [2] in a line: Water uptake of Compound I (Karl Fischer coulometric analysis). It is filed as physicochemical. As for the experimental part: For the purposes of establishing material handling practices, Compound I was evaluated for water uptake in various controlled conditions. Compound I was exposed to 25° C./60% relative humidity and 40° C./75% relative humidity for up to one day. Approximately 200 mg of Compound I was accurately weighed into separate glass vials and placed uncapped in stability chambers. At various time points, the vials were removed, stoppered and crimped, and the water content for Compound I powder was determined by standard Karl Fischer coulometric analysis.

The nature of series [3]: Single-dose maximum tolerated dose (MTD) study. It counts as in vivo, rat. Particulars: both sexes, Sprague Dawley, rat, in vivo; rats, oral gavage, Compound I in Carrier A. The protocol:
as §1
(§4) A single-dose maximum tolerated dose (MTD) study and a seven consecutive day dose-range finding study were carried out in Sprague Dawley by orally administering a formulation of Compound I in Carrier A. In the MTD phase, doses of 50, 100, 200 and 300 mg/kg were administered once to Sprague Dawley rats by oral gavage. The single-dose MTD of Compound I in rats was found at 100 mg/kg.

Series [4] deals with Sprague Dawley rats. The experiment in a line: Single-dose maximum tolerated dose (MTD) study. It counts as in vivo, rat. To be noted: 200 or 300 mg/kg, once, oral gavage. The protocol: as §1, §4

Regarding `CC1=CC(=O)c2c(O)cccc2C1=O` [Compound I, 5-hydroxy-2-methylnaphthalene-1,4-dione], the “Toxicity observed in rats” value with Sprague Dawley rats [1] (10 mg/kg/day) is on record as “Very little toxicity”. The “Compound I-related effects” value with Sprague Dawley rats [1] (10 mg/kg/day low-dose level) was “limited to minimal changes noted in the teeth of one male”. In addition, the Microscopic findings result in the series with Sprague Dawley rats [1] (30 mg/kg/day, both sexes) is listed as “Minimal to mild non-adverse microscopic abnormalities in various organs”. Further, the Clinical chemistry findings result in the series with Sprague Dawley rats [1] (30 mg/kg/day, oral gavage, seven days) is “minimal increases in mean serum total bilirubin concentration and alkaline phosphatase activity”. Besides, the Morbidity/mortality result in the series on Sprague Dawley rats [1] (100 mg/kg/day, beginning on day 3, early termination of all animals on Day 5) was “Morbidity/mortality occurred both in male and female rats”. Further, the “Longer survival of 50% of the combination-treated mice vs castration alone” value in the series with TRAMP-C2 tumor cells was 200 days. Besides, the “Tumor size relative to initial size” value is 157% with PTEN-CaP2/H2B-GFP tumors (combination of Compound I and castration); 293% with PTEN-CaP2/H2B-GFP tumors (oral formulation of Compound I alone (680% castrated, 656% untreated)). For the same compound, the “Effectiveness of combination with castration vs Compound I alone” value with PTEN-CaP2/H2B-GFP tumors (p=0.048) is recorded as “twice as effective”. In addition, the “Survival, combination with castration vs castration alone” value with PTEN-P2 mouse cells (oral 1 mg/kg/day in Carrier A plus castration, p=0.01) is reported as “survived significantly longer”. In addition, the “Survival, Compound I alone vs castration alone” value in the series with PTEN-P2 mouse cells (oral 1 mg/kg/day in Carrier A, p=0.118) is reported as “not statistically different”. Moreover, the “Survival, combination with castration vs untreated control” value with PTEN-P2 mouse cells (oral formulation plus castration, p=0.042) is listed as “survived longer”. Moreover, the “Survival, Compound I alone vs untreated control” value with PTEN-P2 mouse cells (p=0.296) is “not statistically different”. In addition, the Water content in series [2] (25° C./60% RH, 0 hours) is on record as 0.023%; in series [2] (25° C./60% RH, 5 hours), 0.026%; in series [2] (25° C./60% RH, 24 hours), 0.029%; in series [2] (40° C./75% RH, 0 hours), 0.023%; in series [2] (40° C./75% RH, 5 hours), 0.027%; in series [2] (40° C./75% RH, 24 hours) it was 0.031%. Also, the “Water content of Compound I powder (in words)” value in series [2] (25° C./60% and 40° C./75% relative humidity, up to one day) was “anhydrous”. Besides, in series [2] (at up to 75% relative humidity), the “Sensitivity to water uptake” value was “not sensitive to water uptake”. In series [3], this compound showed a maximum tolerated dose (MTD) of 100 mg/kg. In the series with Sprague Dawley rats [4], the Adverse clinical events entry is “decreased activity, abnormal body carriage and piloerection”. For the same compound, the “Mortality after acute administration” value in the series with Sprague Dawley rats [4] is “unscheduled deaths in male rats on Days 1 and 2 but not in females”.

The MTD is the highest dose tested that stayed within the study's limit of toxicity.
